Four molecules from patent US20060160863A1, “Polymorphic and amorphous forms of 2-{3-[(E)-2-(4,6-dimethyl-pyridin-2-yl)-vinyl]-1H-indazol-6-ylamino}-N-(4-hydroxy-but-2-ynyl)benzamide” (AGOURON PHARMACEUTICALS, INC., priority 2005, published 2006) can be followed below.

Each structure is given as a SMILES string. In brackets after ≈: the same amount, converted by molar mass.

The nature of the series: aqueous solubility in 0.1 M sodium phosphate buffer (pH 7.4). The class given is physicochemical. The source says: The present invention provides several polymorph crystalline forms and an amorphous form of the compound of Formula I. Each crystalline or amorphous form of the compound can be characterized by one or more of the following: X-ray powder diffraction pattern (i.e., X-ray diffraction peaks at various diffraction angles (2θ), melting point onset (and onset of dehydration for hydrated forms) as illustrated by endotherms of a Differential Scanning Calorimetry (DSC) thermogram, aqueous solubility, light stability under International Conference on Harmonization (ICH) high intensity light conditions, and physical and chemical storage stability.
In turn, `Cc1cc(C)nc(/C=C/c2n[nH]c3cc(Nc4ccccc4C(=O)NCC#CCO)ccc23)c1` [Form III, 2-{3-[(E)-2-(4,6-dimethyl-pyridin-2-yl)-vinyl]-1H-indazol-6-ylamino}-N-(4-hydroxy-but-2-ynyl)-benzamide] had an aqueous solubility of 3.2 µg/mL (≈ 7.09 µM).
As for `Cc1cc(C)nc(/C=C/c2n[nH]c3cc(Nc4ccccc4C(=O)NCC#CCO)ccc23)c1` [Form IV, 2-{3-[(E)-2-(4,6-dimethyl-pyridin-2-yl)-vinyl]-1H-indazol-6-ylamino}-N-(4-hydroxy-but-2-ynyl)-benzamide], the aqueous solubility amounted to 1.3 µg/mL (≈ 2.88 µM).
`Cc1cc(C)nc(/C=C/c2n[nH]c3cc(Nc4ccccc4C(=O)NCC#CCO)ccc23)c1` [Form II, 2-{3-[(E)-2-(4,6-dimethyl-pyridin-2-yl)-vinyl]-1H-indazol-6-ylamino}-N-(4-hydroxy-but-2-ynyl)-benzamide] had an aqueous solubility of 1.3 µg/mL (≈ 2.88 µM).
To `Cc1cc(C)nc(/C=C/c2n[nH]c3cc(Nc4ccccc4C(=O)NCC#CCO)ccc23)c1` [Form Ia, 2-{3-[(E)-2-(4,6-dimethyl-pyridin-2-yl)-vinyl]-1H-indazol-6-ylamino}-N-(4-hydroxy-but-2-ynyl)-benzamide] belongs 0.8 µg/mL (≈ 1.77 µM).
